Patent US10006020B2 (LESAFFRE ET COMPAGNIE, priority 2008, dated 2018)
“Also recorded” adds a separate entry of the source.

Tests used:
[1] = target: T1, Clostridium phytofermentans xylose isomerase (SEQ ID NO: 1) (Lachnoclostridium phytofermentans, UniProt A9KN98); assay: Xylitol inhibition of the xylose isomerase (method names p426H7-XI-Clos); format: biochemical
T1 construct: raw extract
Protocol: (§9) 50 ml of cultures of yeast cells were grown to the exponential phase in synthetic minimal medium with 2% glucose. The cells were harvested, washed twice in Tris-HCl buffer (pH 7.5) and disrupted by means of glass beads (Ø=0.45 nm) for 8 min on a Vibrax (Janke & Kunkel, Vibrax-VBR) at 4° C. Cell debris was removed by centrifugation for 10 min at 13,000 rpm. Subsequently, the supernatant was collected and filled up to 2 ml with cold Tris-HCl buffer (pH 7.5) and used as a raw extract for the protein determination and for the measurement of the enzyme activities or the xylitol inhibition.
(§10) The XI activity was performed at 30° C. in a reaction mix (100 mM of Tris-HCl, pH 7.5; 10 mM of MgCl2, 0.23 mM of NADH; 2 U of sorbitol dehydrogenase) with different raw extract concentrations. Additionally, different concentrations of xylitol (10-100 mM) were present in the reaction mix.

[2] = target: T2, Clostridium phytofermentans xylose isomerase, codon-optimized form (plasmid p426H7-opt.XI-Clos; protein SEQ ID NO: 1, ORF SEQ ID NO: 3) (Lachnoclostridium phytofermentans, UniProt A9KN98); assay: Xylitol inhibition of the xylose isomerase, codon-optimized XI gene; format: biochemical
Protocol: (§1) 50 ml of cultures of yeast cells were grown to the exponential phase in synthetic minimal medium with 2% glucose. The cells were harvested, washed twice in Tris-HCl buffer (pH 7.5) and disrupted by means of glass beads (Ø=[…]) for 8 min on a Vibrax (Janke & Kunkel, Vibrax-VBR) at 4° C. Cell debris was removed by centrifugation for 10 min at 13,000 rpm. Subsequently, the supernatant was collected and filled up to 2 ml with cold Tris-HCl buffer (pH 7.5) and used as a raw extract for the protein determination and for the measurement of the enzyme activities or the xylitol inhibition.
(§2) Recombinant yeast cells with the vector p426H7-opt.XI-Piro or the vector p426HXT7-6HIS, respectively, served as a comparison. […] The acceptance of NADH as a measured variable was determined spectrophotometrically at a wave length of 340 nm. The reaction was started by adding xylose. […]
(§3) K was determined via the equation Km′=Km′=Km*(1+i/Ki), i being the xylitol concentration used and Km′ being the apparent Km value at the corresponding xylitol concentration.
(§4) The strain CEN.PK2-1C transformed with the plasmid p426H7-opt.XI-Clos and p426H7-opt.XI-Piro, respectively, was grown over night in synthetic complete medium with 2% glucose and no uracil. Raw extracts were prepared and quantitative enzyme tests with constant xylitol concentrations of 10-100 mM were performed.

[3] = target: Piromyces sp. E2 xylose isomerase, codon-optimized (plasmid p426H7-opt.XI-Piro) (Piromyces sp. E2, UniProt A0ACD6B9F5); assay: Xylitol inhibition of the xylose isomerase, comparison enzyme; format: biochemical
Protocol: as §9, §10

[4] = system: Piromyces sp. E2 xylose isomerase; conditions: result in words, prior art; cited from earlier work
[5] = target: Clostridium phytofermentans xylose isomerase, native form (plasmid p426H7-XI-Clos; protein SEQ ID NO: 1, ORF SEQ ID NO: 2) (Lachnoclostridium phytofermentans, UniProt A9KN98); assay: Xylose isomerase activity, enzyme kinetics with xylose (raw extract, sorbitol dehydrogenase coupled, NADH 340 nm), native XI gene; format: biochemical; conditions: xylose 6.25-500 mM, 30° C.
Protocol: (§5) The strain CEN.PK2-1C transformed with the plasmid p426H7-XI-Clos and p426H7-opt.XI-Clos, respectively, was grown over night in synthetic complete medium with 2% glucose and no uracil. Raw extracts were prepared and quantitative enzyme tests were performed. A representative result is shown. The values indicated in table 3 are average values from at least 3 independent measurements.
(§6) 50 ml of cultures of yeast cells were grown to the exponential phase in synthetic minimal medium with 2% glucose. The cells were harvested, washed twice in Tris-HCl buffer (pH 7.5) and disrupted by means of glass beads (Ø=[…]) for 8 min on a Vibrax (Janke & Kunkel, Vibrax-VBR) at 4° C. Cell debris was removed by centrifugation for 10 min at 13,000 rpm. […]
(§7) Recombinant yeast cells containing the empty vector p426HXT7-6HIS served as a comparison. […] The acceptance of NADH as a measured variable was determined spectrophotometrically at a wave length of 340 nm. […]
(§8) The strain CEN.PK2-1C transformed with the plasmid p426H7-XI-Clos and p426H7-opt.XI-Clos, respectively, was grown over night in synthetic complete medium with 2% glucose and no uracil. Raw extracts were prepared and quantitative enzyme tests were performed.

[6] = target: T2, Clostridium phytofermentans xylose isomerase, codon-optimized form (plasmid p426H7-opt.XI-Clos; protein SEQ ID NO: 1, ORF SEQ ID NO: 3); assay: Xylose isomerase activity, enzyme kinetics with xylose (raw extract, sorbitol dehydrogenase coupled, NADH 340 nm), codon-optimized XI gene; format: biochemical; conditions: table 3; xylose 6.25-500 mM, 30° C., pH 7.5, raw extract
Protocol: as §5, §6, §7, §8

[7] = substrate: OC1OC[C@@H](O)[C@H](O)[C@H]1O; assay: purified protein, by the assay type; conditions: other: xylose 6.25-500 mM, 30° C., pH 7.5, raw extract of CEN.PK2-1C
yeast strain MKY09 = assay: Growth test on agar plates with SC medium and 2% xylose as only carbon source; format: cell-based, S. cerevisiae; conditions: SC medium
Description: Growth tests of recombinant S. cerevisiae strains, which include the bacterial D-xylose metabolism with the xylose isomerase from C. phytofermentans. […] The empty vector p426HXT7-6HIS (5A) served as the negative control.
In the yeast strain CEN.PK2-1C, all the genes of the non-oxidative pentose phosphate pathway as well as the xylulokinase (XKS1) and GAL2 were overexpressed. To this end, the endogenous promoters were replaced with the truncated HXT7 promoter.
The obtained PCR products were together with the vector p426HXT7-6HIS linearized with EcoRI/BamHI transformed in yeast and cloned via in vivo recombination into the plasmid between the HXT7 promoter or CYC1 terminator, respectively (FIG. 4). The sequence of the plasmids obtained was verified by means of restriction analysis. […] However, it was not possible to amplify the desired PCR product with the xylose isomerase from the organisms Streptomyces diastaticus and Leifsonia xyli. Both xylose isomerases thus could not be tested on functionality in yeast.
To this end, the codon-optimized XI-ORF was amplified with primers and cloned into the linearized vector p426HXT7-6HIS (see “Execution of the screen”). The sequence of the obtained plasmid p426H7-opt.XI-Clos was verified by means of restriction analysis. To test the functionality of the codon-optimized isomerase, the plasmid p426H7-opt.XI-Clos was transformed in the strain MKY09. […]

[8] = system: xylose isomerase from C. phytofermentans; assay: Measurement of the xylitol inhibition of the xylose isomerase (raw extracts); format: biochemical, Clostridium phytofermentans; conditions: from the determined Ki values
Protocol: as §1, §2, §3, §4

Sequence of Piromyces sp. E2 xylose isomerase, codon-optimized (plasmid p426H7-opt.XI-Piro) (A0ACD6B9F5 1-437): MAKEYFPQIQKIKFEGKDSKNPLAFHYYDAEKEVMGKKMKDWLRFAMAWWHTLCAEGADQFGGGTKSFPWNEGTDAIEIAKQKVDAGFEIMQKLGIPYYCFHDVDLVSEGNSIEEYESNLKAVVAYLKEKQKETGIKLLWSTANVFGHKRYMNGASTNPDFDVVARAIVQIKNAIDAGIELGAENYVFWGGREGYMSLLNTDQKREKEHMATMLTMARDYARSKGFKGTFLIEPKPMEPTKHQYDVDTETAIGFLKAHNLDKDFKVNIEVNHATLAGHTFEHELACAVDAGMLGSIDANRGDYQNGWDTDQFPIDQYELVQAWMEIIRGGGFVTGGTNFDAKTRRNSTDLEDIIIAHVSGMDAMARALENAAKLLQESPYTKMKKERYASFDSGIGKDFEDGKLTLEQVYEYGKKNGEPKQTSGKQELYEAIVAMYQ

Molecule: OC[C@@H](O)[C@H](O)[C@@H](O)CO [xylitol]
- Ki [1]: 14.2 ± 1.48 mM
- xylitol inhibition ([1]; result in words): competitive inhibition; also recorded: significantly less inhibited by xylitol than the xylose isomerase from Piromyces sp.E2; also recorded: only slightly inhibited
- Ki [2]: 14.5 ± 1.08 mM
- Ki [3]: 4.67 ± 1.77 mM
- inhibition by xylitol [4]: strongly inhibited

Molecule: OC1OC[C@@H](O)[C@H](O)[C@H]1O (some centres unmarked) [xylose]
- Vmax ([5]; table 3, pH 7.5, raw extract): 0.0076 μmol/min^−1 protein^−1) mg
- Km ([5]; pH 7.5, raw extract of CEN.PK2-1C): 61.8 ± 3.4 mM
- Vmax [6]: 0.0344 μmol/min^−1 protein^−1) mg

B1: Clostridium phytofermentans xylose isomerase, native form (plasmid p426H7-XI-Clos; protein SEQ ID NO: 1, ORF SEQ ID NO: 2) (Lachnoclostridium phytofermentans … (protein)
chain: MKNYFPNVPEVKYEGPNSTNPFAFKYYDANKVVAGKTMKEHCRFALSWWHTLCAGGADPFGVTTMDRTYGNITDPMELAKAKVDAGFELMTKLGIEFFCFHDADIAPEGDTFEESKKNLFEIVDYIKEKMDQTGIKLLWGTANNFSHPRFMHGASTSCNADVFAYAAAKIKNALDATIKLGGKGYVFWGGREGYETLLNTDLGLELDNMARLMKMAVEYGRANGFDGDFYIEPKPKEPTKHQYDFDTATVLAFLRKYGLEKDFKMNIEANHATLAGHTFEHELAMARVNGAFGSVDANQGDPNLGWDTDQFPTDVHSATLAMLEVLKAGGFTNGGLNFDAKVRRGSFEFDDIAYGYIAGMDTFALGLIKAAEIIDDGRIAKFVDDRYASYKTGIGKAIVDGTTSLEELEQYVLTHSEPVMQSGRQEVLETIVNNILFR
- Km [7]: 61.85 ± 3.41 mM
- Vmax [7]: 0.0076 μmol/min^−1 mg protein^−1

B2: Clostridium phytofermentans xylose isomerase, codon-optimized form (plasmid p426H7-opt.XI-Clos; protein SEQ ID NO: 1, ORF SEQ ID NO: 3) (Lachnoclostridium … (protein)
chain: MKNYFPNVPEVKYEGPNSTNPFAFKYYDANKVVAGKTMKEHCRFALSWWHTLCAGGADPFGVTTMDRTYGNITDPMELAKAKVDAGFELMTKLGIEFFCFHDADIAPEGDTFEESKKNLFEIVDYIKEKMDQTGIKLLWGTANNFSHPRFMHGASTSCNADVFAYAAAKIKNALDATIKLGGKGYVFWGGREGYETLLNTDLGLELDNMARLMKMAVEYGRANGFDGDFYIEPKPKEPTKHQYDFDTATVLAFLRKYGLEKDFKMNIEANHATLAGHTFEHELAMARVNGAFGSVDANQGDPNLGWDTDQFPTDVHSATLAMLEVLKAGGFTNGGLNFDAKVRRGSFEFDDIAYGYIAGMDTFALGLIKAAEIIDDGRIAKFVDDRYASYKTGIGKAIVDGTTSLEELEQYVLTHSEPVMQSGRQEVLETIVNNILFR
- Km [7]: 66.01 ± 1^ mM
- Vmax [7]: 0.0344 μmol/min^−1 mg protein^−1

B3: xylose isomerase from C. phytofermentans: prokaryotic xylose isomerase of Clostridium phytofermentans, protein SEQ ID NO: 1; gene form not specified at the place (protein)
chain: MKNYFPNVPEVKYEGPNSTNPFAFKYYDANKVVAGKTMKEHCRFALSWWHTLCAGGADPFGVTTMDRTYGNITDPMELAKAKVDAGFELMTKLGIEFFCFHDADIAPEGDTFEESKKNLFEIVDYIKEKMDQTGIKLLWGTANNFSHPRFMHGASTSCNADVFAYAAAKIKNALDATIKLGGKGYVFWGGREGYETLLNTDLGLELDNMARLMKMAVEYGRANGFDGDFYIEPKPKEPTKHQYDFDTATVLAFLRKYGLEKDFKMNIEANHATLAGHTFEHELAMARVNGAFGSVDANQGDPNLGWDTDQFPTDVHSATLAMLEVLKAGGFTNGGLNFDAKVRRGSFEFDDIAYGYIAGMDTFALGLIKAAEIIDDGRIAKFVDDRYASYKTGIGKAIVDGTTSLEELEQYVLTHSEPVMQSGRQEVLETIVNNILFR
modifications: Clostridium phytofermentans
notes: gene form not specified at the place
- growth on plates containing xylose (yeast strain MKY09): good growth
- inhibition by xylitol compared with the xylose isomerase from Piromyces sp.E2 [8]: significantly less inhibited by xylitol
